These results are taken from US12433872B2, “Treatment of Acanthamoeba or Balamuthia trophozoites and/or cysts” (GEORGIA STATE UNIVERSITY RESEARCH FOUNDATION, INC., priority 2018, dated 2025).

Holding throughout (format): cell-based
In experiment [1] the test system is A549 cells. Put plainly: Toxicity to human A549 cells.
Experiment [2] concerns Balamuthia mandrillaris trophozoites. The experiment can be described thus: Activity against Balamuthia mandrillaris trophozoites. The note with it: Balamuthia mandrillaris, read-out: Balamuthia mandrillaris IC50. As to the method: Balamuthia mandrillaris trophozoites were thawed and grown in 10 ml of BM-3 medium. […] After autoclaving, complete BM-3 media was produced by the addition of 10% fetal bovine serum and 125 μg of penicillin/streptomycin antibiotics. The table describes all of the compounds and the activity against Balamuthia trophozoites compared to the activity for select Acanthamoeba trophozoites shown in Table 5.

In experiment [3] the test system is Acanthamoeba castellanii (ATCC50370) cysts. The experiment can be described thus: Encystation drug susceptibility / excystation viability assay, 30 day recovery, A. castellanii cysts. The settings on record: ATCC50370, 720 h, read-out: A. castellanii 30 day MCC. As to the method:
(§1) The trophozoites of Acanthamoeba were harvested by mechanical detachment and collected via centrifugation at 4000 rpm at 4° C. for 5 minutes. The trophozoites were washed in 10 mL of Neff's Encystment Media (NEM). NEM composition is 20 mM Tris-HCL [pH 8.8] (2.43 g/L), 100 mM KCL (7.46 g/L), 8 mM MgSO4 (962.96 mg/L), 0.4 mM CaCL2 58.81 mg/L) and 1 mM NaHCO3 (84.01 mg/L) (Neff et al. 1964). All reagents were bought from Sigma Aldrich. Centrifugation of the trophozoites was repeated to ensure any residual growth medium was removed. The pellet was resuspended in a final volume of 15 mL of NEM, cultured in 75 cm^2 corning tissue culture flasks and incubated vertically in a thermal shaker, shaken at 100 rpm at 37° C. for 72 hours to produce fully matured cysts. NEM was supplemented with 250 μg of penicillin/streptomycin. Fresh cysts were produced each time for any experimentation.
(§2) At 72 hours the cysts were harvested using a cell scraper and collected via centrifugation at 4000 rpm at 25° C. for 10 minutes. The cells were washed twice in 10 mL of HyClone™ water, Molecular Biology Grade, and centrifugation was repeated to ensure the removal of any residual NEM. The cell suspension was washed with 0.5% sodium dodecyl sulphate (SDS) to remove any remaining trophozoites and immature cysts. The fully mature cysts were further washed twice with 10 mL of HyClone™ water and 1% NEM, centrifugation was repeated to remove any residue of SDS. The concentration of mature cysts was determined using a haemocytometer and adjusted to 1×10^4 cysts/mL in NEM.
(§3) All test compounds were prepared as 5 mg/mL stock solutions in dimethylsulfoxide (DMSO). All compounds were diluted in NEM, serially diluted in 2-fold dilutions 6 or 11 times, yielding a screening concentration range of 1.56 μg/mL to 50 μg/mL or 48 ng/mL to 50 μg/mL with a final highest screening concentration of 1% DMSO.
(§4) Based on this, a strain specific test period and also a 30 day non-specific recovery time were considered. For the 30 day recovery period, the media was changed 5 times to ensure the contents of wells dis not evaporate and have an effect within the results of the assay.
(§5) 90 μL of 1×10^4 Cysts/ml and 10 μL of experimental compounds from the screening plates were produced according to the protocols above and combined into a Corning clear 96 well treated tissue culture plate. Control wells include cysts in non-drug treated, 1% DMSO, NEM (to be used for negative growth control), NEM Blank, PG blank and cysts in non-drug treated, 1% DMSO, PG (to excyst cells and to be used for positive growth control). The total well volume for all wells was 100 μL. The drug exposed plates were screened at 27° C. for 6 or 24 hours only. At the exposure time point the plates were centrifuged at 4000 rpm at 25° C. for 10 minutes and washed twice with phosphate-buffered saline (PBS) to remove any residual experimental compound.
(§6) Once the plate(s) underwent the Encystation drug susceptibility process, all wells except the negative growth control and NEM blank wells received PG growth medium. All plates were left to recover at 27° C. for the strain specific time period of 5, 9 or 11 days depending on the species of Acanthamoeba. At each of the strain specific time points the plates were removed from incubation and microscopically analysed (qualitatively) for the excystation process for the emergence of excysted viable trophozoites or residual cysts. The presence of excysted trophozoites indicated viable amoebae (non-cystistatic or cysticidal—no effect) and the absence of excystation was considered as cystistatic/cysticidal effects.

Experiment [4] has as its system Acanthamoeba healyi cysts. The experiment can be described thus: Encystation drug susceptibility / excystation viability assay, 30 day recovery, A. healyi cysts. The note with it: 720 h, read-out: A. healyi 30 day MCC. As to the method:
as §1, §2, §3, §4, §5, §6

The subject of experiment [5] is Acanthamoeba castellanii trophozoites. The experiment can be described thus: Activity against Acanthamoeba castellanii trophozoites. As to the method:
Two Acanthamoeba species (Acanthamoeba castellanii—ATCC50370 and Acanthamoeba culbertsoni—ATCC30171) were bought from the American Type Culture Collection (ATCC) and one species (Acanthamoeba healyi) was donated from the Centers for Disease Control and Prevention (CDC) for our experimentations. Trophozoites were thawed and grown in 10 mL of a nutrient rich Peptose-Glucose (PG) media. The PG media composition is 83.26 mM Glucose (15 g/L), Protease Peptone (15 g/L, yeast extract is manufactured under controlled conditions to retain its vitamin content and other nutritive values such as free amino acids, no other composition information given), 2.2 mM KH2PO4 (300 mg/L), 2.97 μM Thiamine (1 mg/L), 99.86 μM L-methionine (14.9 mg/L), 4.6 μM Vitamin B12 (83.3 μl of 0.1 mg/mL stock/L) and 68 μM Biotin (83.3 μl of 0.2 mg/mL stock/L). […] One mL/L of the salt solution was added to the media stock prior to autoclaving. All reagents were purchased from Sigma Aldrich except the Glucose which was purchased from Alfa Aesar. The cell pellet was resuspended in a final volume of 10 mL of PG media, cultured in 75 cm^2 coming tissue culture flasks and incubated at 27° C. PG was supplemented with 125 μg of penicillin/streptomycin. Sub-culturing occurred twice per week to allow the continued growth and development of the Acanthamoeba trophozoites. […]

Experiment [6] relates to Acanthamoeba culbertsoni (ATCC30171) cysts. Put plainly: Encystation drug susceptibility / excystation viability assay, 30 day recovery, A. culbertsoni cysts. The note with it: ATCC30171, 720 h, read-out: A. culbertsoni 30 day MCC. As to the method: as §1, §2, §3, §4, §5, §6
Setting [7] is: human A549 cells, read-out: A549 cell IC50.
Where [8] appears, read: minimum cysticidal concentration, no recovery up to 30 days.
[9] abbreviates: trophozoites, n = 2, Table 6, read-out: Acanthamoeba castellanii IC50.
The mark [10] stands for this setting: read-out: Acanthamoeba castellanii IC50.

What is called pIC50 is the IC50 on a negative log10 scale, so that one unit is a factor of ten.

Structures are written as SMILES. pIC50: −log10 of the molar value. Where two headings read alike, the source gives them in different places.

`CC(C)NC(=N)c1ccc2nc(-c3ccc(Oc4ccc(-c5nc6ccc(C(=N)NC(C)C)cc6[nH]5)c(Br)c4)c(F)c3)[nH]c2c1` [Q, 2-(2-Bromo-4-(2-fluoro-4-(6-(N-isopropylcarbamimidoyl)-1H-benzo[d]imidazol-2-yl)phenoxy)phenyl)-N-isopropyl-1H-benzo[d]imidazole-6-carboximidamide]: the pIC50 in experiment [1] (setting [7]) is 5.45; in experiment [2] (trophozoites, n = 2), 7.00; in experiment [5] (setting [9]) it was 6.39. The MCC in experiment [3] (setting [8]) turned out to be 3.6 µM; in experiment [4] (setting [8]) it was 3.6 µM; in experiment [6] (setting [8]), 2.7 µM.
For `CC(C)NC(=N)c1ccc2nc(-c3ccc(Oc4ccc(-c5nc6ccc(C(=N)NC(C)C)cc6[nH]5)c(Br)c4)cc3)[nH]c2c1` [M, 2-(2-Bromo-4-(4-(6-(N-isopropylcarbamimidoyl)-1H-benzo[d]imidazol-2-yl)phenoxy)phenyl)-N-isopropyl-1H-benzo[d]imidazole-6-carboximidamide], the pIC50 in experiment [1] (setting [7]) was 5.41; in experiment [2] (trophozoites, n = 2) it was 7.10; in experiment [5] (setting [9]), 6.41. For the same compound, the figures for the MCC in experiment [3] (setting [8]), in experiment [4] (setting [8]) and in experiment [6] (setting [8]) were 2.85 µM, 3.8 µM and 5.7 µM, respectively.
Turning to `CCC(CC)NC(=N)c1ccc2nc(-c3ccc(Oc4ccc(-c5nc6ccc(C(=N)NC(CC)CC)cc6[nH]5)cc4)cc3)[nH]c2c1` [Compound T], the pIC50 in experiment [1] (setting [7]) is 4.50; in experiment [2] (trophozoites, n = 2), 6.85; in experiment [5] (setting [9]), 5.95. For the same compound, the MCC was determined as 11.4 µM in experiment [3] (setting [8]), 7.61 µM in experiment [4] (setting [8]) and 5.71 µM in experiment [6] (setting [8]).
Turning to `CC(C)NC(=N)c1ccc2nc(-c3ccc(Oc4ccc(-c5nc6ccc(C(=N)NC(C)C)cc6[nH]5)c(Br)c4)cc3F)[nH]c2c1` [Compound E, 2-(2-Bromo-4-(3-fluoro-4-(6-(N-isopropylcarbamimidoyl)-1H-benzo[d]imidazol-2-yl)phenoxy)phenyl)-N-isopropyl-1H-benzo[d]imidazole-6-carboximidamide], the pIC50 was 5.42 in experiment [1] (Homo sapiens, A549, read-out: A549 cell IC50); 6.96 in experiment [2]; 6.66 in experiment [5] (read-out: A. cactellanii Trophozoite IC50); 6.11 in experiment [5] (setting [10]). For the same compound, the results for the MCC in experiment [3], in experiment [4] and in experiment [6] were 2.75 µM, 1.83 µM and 1.83 µM, respectively.
In the case of `N=C(C1=NCCCN1)c1ccc2nc(-c3ccc4nc(-c5ccccc5)[nH]c4c3)[nH]c2c1` [AL, (2′-phenyl-1H,3′H-[2,5′-bibenzo[d]imidazol]-6-yl)(1,4,5,6-tetrahydropyrimidin-2-yl)methanimine], the pIC50 in experiment [2] (trophozoites, n = 2) was 6.55; in experiment [5] (setting [9]), 5.63.
With `CC(C)NC(=N)c1ccc2nc(-c3ccc(Oc4ccc(-c5nc6ccc(C(=N)NC(C)C)cc6[nH]5)cc4Cl)cc3)[nH]c2c1` [Compound AJ], the figures for the pIC50 in experiment [2] and in experiment [5] (setting [10]) were 7.30 and 6.34, respectively.
Turning to `N=C(c1ccc2nc(-c3ccc(Oc4ccc(-c5nc6ccc(C(=N)N7CCOCC7)cc6[nH]5)cc4)cc3)[nH]c2c1)N1CCOCC1` [BE], the pIC50 in experiment [2] (trophozoites, n = 2) was 6.42; in experiment [5] (setting [9]) it was 5.31.
The like results for `COc1cc(Oc2ccc(-c3nc4ccc(C(=N)NC(C)C)cc4[nH]3)cc2C#N)ccc1-c1nc2ccc(C(=N)NC(C)C)cc2[nH]1` [Z, 2-(3-Cyano-4-(4-(6-(N-isopropylcarbamimidoyl)-1H-benzo[d]imidazol-2-yl)-3-methoxyphenoxy)phenyl)-N-isopropyl-1H-benzo[d]imidazole-6-carboximidamide] were, in that order, 6.55 and 5.73.
On the same counts, the results for `CC(C)NC(=N)c1ccc2nc(-c3ccc(N(c4ccccc4)c4ccc(-c5nc6ccc(C(=N)NC(C)C)cc6[nH]5)cc4)cc3)[nH]c2c1` [BG] are 6.33 and 5.51.
The like results for `COc1ccc(-c2nc3ccc(-c4nc5ccc(C6=NCC(C)(C)CN6)cc5[nH]4)cc3[nH]2)cc1O` [Compound AR, 5-(6-(5,5-dimethyl-1,4,5,6-tetrahydropyrimidin-2-yl)-1H,3′H-[2,5′-bibenzo[d]imidazol]-2′-yl)-2-methoxyphenol] were, in that order, 6.18 and 5.70.
For `N=C(N)c1ccc2nc(-c3ccc4nc(-c5ccc(C(N)=O)cc5)[nH]c4c3)[nH]c2c1` [AP, 4-(6-carbamimidoyl-1H,3′H-[2,5′-bibenzo[d]imidazol]-2′-yl)benzamide], the pIC50 in experiment [2] is 6.40; in experiment [5] (setting [10]), 4.32.
Take `COc1ccc(-c2nc3ccc(-c4nc5ccc(C6=NCCCCN6)cc5[nH]4)cc3[nH]2)cc1O` [AM, 2-methoxy-5-(6-(4,5,6,7-tetrahydro-1H-1,3-diazepin-2-yl)-1H,3′H-[2,5′-bibenzo[d]imidazol]-2′-yl)phenol]: the pIC50 in experiment [2] (trophozoites, n = 2) is 6.89; in experiment [5] (setting [9]), 5.71.
With `CC(C)NC(=N)c1ccc2nc(-c3ccc(Oc4ccc(-c5nc6ccc(C(=N)NC(C)C)cc6[nH]5)c(C(F)(F)F)c4)cc3)[nH]c2c1` [Compound AH], the negative-log IC50 (pIC50) in experiment [2] was 7.05; in experiment [5] (setting [10]), 5.72.
With `N=C(N)c1ccc(-c2ccc(C(=O)Nc3cccc(C(=N)N)c3)cc2)cc1` [Compound AV], the pIC50 in experiment [2] (trophozoites, n = 2) is 6.17; in experiment [5] (setting [9]) it was 6.43.
On the same counts, the results for `CC(C)NC(=N)c1ccc2nc(-c3ccc(Oc4c(F)cc(-c5nc6ccc(C(=N)NC(C)C)cc6[nH]5)cc4F)cc3)[nH]c2c1` [W, 2-(3,5-Difluoro-4-(4-(6-(N-isopropylcarbamimidoyl)-1H-benzo[d]imidazol-2-yl)phenoxy)phenyl)-N-isopropyl-1H-benzo[d]imidazole-6-carboximidamide] are 6.54 and 4.48.
